Measurements published in PMC11149917, “Translational and Therapeutic Evaluation of RAS-GTP Inhibition by RMC-6236 in RAS-Driven Cancers” (Cancer Discovery, 2024).
Read-outs that look alike come from different tables or passages of the source.

Experiment: Mouse blood and tissue PK (LC/MS-MS)
Type: in vivo
Conditions: for Kp: tumor relative to whole blood
Method: For single-dose PKPD study, mice were randomized and assigned into groups (n = 3/dose/time point). […] Blood and tissues, including the tumor, brain, colon, ear skin, and muscle, were harvested at indicated time points. […] The whole blood, tumor, brain, colon, and ear skin concentrations of RMC-6236 were determined using liquid chromatography–tandem mass spectrometry (LC/MS-MS) methods. […] After thorough mixing and centrifugation, the supernatant was diluted with water or directly analyzed on a Sciex 5500 or Sciex 6500+ triple quadrupole mass spectrometer equipped with an ACQUITY or Shimadzu UPLC system. […] Bioanalysis on blood and tissue samples from xenograft models was run at Pharmaron and Wuxi AppTec. Concentrations reported as below the quantification limit were treated as zero for PK analysis. PK parameters were calculated by noncompartmental analysis of the concentration–time profiles using Phoenix WinNonLin (version 8.3 Certara). Apparent terminal elimination half-life (t1/2) values were calculated as ln(2)/k, where k represents the terminal elimination rate constant. Area under the concentration–time curve (AUC) values were estimated using a linear trapezoidal method. AUClast values were calculated from the dosing time to the last quantifiable concentration. Maximum concentration (Cmax) was recorded as observed.

[1] = NCI-H2122 (25 mg/kg), single dose

SMILES: CCn1c(-c2cc(N3CCN(C)CC3)cnc2[C@H](C)OC)c2c3cc(ccc31)-c1csc(n1)C[C@H](NC(=O)[C@H]1C[C@@H]1C)C(=O)N1CCC[C@H](N1)C(=O)OCC(C)(C)C2 [RMC-6236]
- Tumor AUClast [1]: 50057 ng·h/mL
- Tumor Cmax [1]: 3350 ng/mL
- Brain Cmax (Naïve Mice #1 (10 mg/kg), single dose): 25 ng/mL
- Brain Cmax (Naïve Mice #1 (50 mg/kg), single dose): 161 ng/mL
- concentration at 4 h (mouse, ear skin, oral, 25 mg/kg, sheet Ear Skin, model KP-4, study KP-4 #5, 25 mg/kg, read-out: RMC-6236 (nM) Tumor): 2790 nM
- concentration at 8 h (mouse, ear skin, oral, 25 mg/kg, sheet Ear Skin, model KP-4, study KP-4 #5, 25 mg/kg, 8h, read-out: RMC-6236 (nM) Tumor): 1610 nM
- concentration at 48 h (mouse, ear skin, oral, 25 mg/kg, sheet Ear Skin, model KP-4, study KP-4 #5, 25 mg/kg, 48h, read-out: RMC-6236 (nM) Tumor): 221 nM
- Kp (mouse, oral, 3 mg/kg, NCI-H441 (3 mg/kg), single dose, read-out: Tumor/Blood AUC Ratio): 5.4
- Kp (mouse, oral, 10 mg/kg, NCI-H441 (10 mg/kg), single dose, read-out: Tumor/Blood AUC Ratio): 4.6
- Kp (mouse, oral, 25 mg/kg, HPAC (25 mg/kg), single dose, read-out: Tumor/Blood AUC Ratio): 6.6
- Kp (mouse, oral, 25 mg/kg, KP-4 (25 mg/kg), single dose, read-out: Tumor/Blood AUC Ratio): 6.4
- Kp (mouse, oral, 25 mg/kg, NCI-H358 (25 mg/kg), single dose, read-out: Tumor/Blood AUC Ratio): 5.9
- Kp (mouse, oral, 25 mg/kg, NCI-H441 #2 (25 mg/kg), QD x 10 days, read-out: Tumor/Blood AUC Ratio): 4.9
- Kp (mouse, oral, 25 mg/kg, NCI-H441 (25 mg/kg), single dose, read-out: Tumor/Blood AUC Ratio): 6.1
- Kp (mouse, oral, 25 mg/kg, NCI-H2122 (25 mg/kg), single dose, read-out: Tumor/Blood AUC Ratio): 6.3
- Kp (mouse, oral, various xenograft tumors, read-out: exposure in xenograft tumors relative to blood): 3 to 7
- concentration at 8 h (mouse, tumor, oral, 0.3 mg/kg, HPAC #11, 0.3 mg/kg, 8h, individual animals, read-out: RMC-6236 (nM) Tumor): 37 nM
- concentration at 24 h (mouse, tumor, oral, 0.3 mg/kg, NCI-H441 xenograft tumor, study NCI-H441#10, 0.3 mg/kg, 24h, read-out: RMC-6236 (nM) Tumor): 36.8 nM
- concentration at 8 h (mouse, tumor, oral, 0.3 mg/kg, NCI-H441 xenograft tumor, study NCI-H441#13, 0.3 mg/kg, 8h, read-out: RMC-6236 (nM) Tumor): 89.5 nM
- concentration at 8 h (mouse, tumor, oral, 1 mg/kg, HPAC #11, 1 mg/kg, 8h, individual animals, read-out: RMC-6236 (nM) Tumor): 216 nM
- concentration at 8 h (mouse, tumor, oral, 1 mg/kg, NCI-H441 xenograft tumor, study NCI-H441#10, 1 mg/kg, 8h, read-out: RMC-6236 (nM) Tumor): 129 nM
- concentration at 8 h (mouse, tumor, oral, 1 mg/kg, NCI-H441 xenograft tumor, study NCI-H441#13, 1 mg/kg, 8h, read-out: RMC-6236 (nM) Tumor): 114 nM
- concentration at 24 h (mouse, tumor, oral, 1 mg/kg, NCI-H441 xenograft tumor, study NCI-H441#13, 1 mg/kg, 24h, read-out: RMC-6236 (nM) Tumor): 53.2 nM
- concentration at 8 h (mouse, tumor, oral, 3 mg/kg, HPAC #4, 3 mg/kg, 8h, individual animals, read-out: RMC-6236 (nM) Tumor): 245 nM
- concentration at 24 h (mouse, tumor, oral, 3 mg/kg, HPAC #4, 3 mg/kg, 24h, individual animals, read-out: RMC-6236 (nM) Tumor): 205 nM
- concentration at 48 h (mouse, tumor, oral, 3 mg/kg, HPAC #4, 3 mg/kg, 48h, individual animals, read-out: RMC-6236 (nM) Tumor): 31.9 nM
- concentration at 4 h (mouse, tumor, oral, 3 mg/kg, KP-4, study KP-4 #6, 3 mg/kg, read-out: RMC-6236 (nM) Tumor): 264 nM
- concentration at 8 h (mouse, tumor, oral, 3 mg/kg, KP-4, study KP-4 #6, 3 mg/kg, 8h, read-out: RMC-6236 (nM) Tumor): 340 nM
- concentration at 12 h (mouse, tumor, oral, 3 mg/kg, KP-4, study KP-4 #6, 3 mg/kg, 12h, read-out: RMC-6236 (nM) Tumor): 298 nM
- concentration at 48 h (mouse, tumor, oral, 3 mg/kg, KP-4, study KP-4 #6, 3 mg/kg, 48h, read-out: RMC-6236 (nM) Tumor): 29 nM
- concentration at 24 h (mouse, tumor, oral, 3 mg/kg, NCI-H441 xenograft tumor, study NCI-H441#6, 3 mg/kg, 24h, read-out: RMC-6236 (nM) Tumor): 159 nM
- concentration at 48 h (mouse, tumor, oral, 3 mg/kg, NCI-H441 xenograft tumor, study NCI-H441#6, 3 mg/kg, 48h, read-out: RMC-6236 (nM) Tumor): 63 nM
- concentration at 4 h (mouse, tumor, oral, 10 mg/kg, HPAC #4, 10 mg/kg, individual animals, read-out: RMC-6236 (nM) Tumor): 817 nM
- concentration at 8 h (mouse, tumor, oral, 10 mg/kg, HPAC #4, 10 mg/kg, 8h, individual animals, read-out: RMC-6236 (nM) Tumor): 1230 nM
- concentration at 24 h (mouse, tumor, oral, 10 mg/kg, HPAC #4, 10 mg/kg, 24h, individual animals, read-out: RMC-6236 (nM) Tumor): 300 nM
- concentration at 48 h (mouse, tumor, oral, 10 mg/kg, HPAC #4, 10 mg/kg, 48h, individual animals, read-out: RMC-6236 (nM) Tumor): 128 nM
- concentration at 48 h (mouse, tumor, oral, 10 mg/kg, KP-4, study KP-4 #6, 10 mg/kg, 48h, read-out: RMC-6236 (nM) Tumor): 235 nM
- concentration at 1 h (mouse, tumor, oral, 10 mg/kg, Model Validation Dataset, 10mg/kg_study6, 1 h, read-out: Tumor Concentration): 340 nM
- concentration at 8 h (mouse, tumor, oral, 10 mg/kg, Model Validation Dataset, 10mg/kg_study6, 8 h, read-out: Tumor Concentration): 1010 nM
- concentration at 24 h (mouse, tumor, oral, 10 mg/kg, Model Validation Dataset, 10mg/kg_study6, 24 h, read-out: Tumor Concentration): 353 nM
- concentration at 48 h (mouse, tumor, oral, 10 mg/kg, Model Validation Dataset, 10mg/kg_study6, 48 h, read-out: Tumor Concentration): 214 nM
- concentration at 8 h (mouse, tumor, oral, 10 mg/kg, NCI-H441 xenograft tumor, study NCI-H441#6, 10 mg/kg, 8h, read-out: RMC-6236 (nM) Tumor): 904 nM
- concentration at 24 h (mouse, tumor, oral, 10 mg/kg, NCI-H441 xenograft tumor, study NCI-H441#6, 10 mg/kg, 24h, read-out: RMC-6236 (nM) Tumor): 519 nM
- concentration at 48 h (mouse, tumor, oral, 10 mg/kg, NCI-H441 xenograft tumor, study NCI-H441#6, 10 mg/kg, 48h, read-out: RMC-6236 (nM) Tumor): 213 nM
- concentration at 8 h (mouse, tumor, oral, 10 mg/kg, NCI-H441 xenograft tumor, study NCI-H441#10, 10 mg/kg, 8h, read-out: RMC-6236 (nM) Tumor): 685 nM
- concentration at 24 h (mouse, tumor, oral, 10 mg/kg, NCI-H441 xenograft tumor, study NCI-H441#10, 10 mg/kg, 24h, read-out: RMC-6236 (nM) Tumor): 541 nM
- concentration at 48 h (mouse, tumor, oral, 10 mg/kg, NCI-H441 xenograft tumor, study NCI-H441#10, 10 mg/kg, 48h, read-out: RMC-6236 (nM) Tumor): 153 nM
